Measurements published in patent US7091204B2, “Sulfonamides” (SmithKline Beecham Corporation, priority 2001, dated 2006).

Target: T1, human and rat GPR-14 (UniProt Q9UKP6)
T1 sequence (Q9UKP6 1-389): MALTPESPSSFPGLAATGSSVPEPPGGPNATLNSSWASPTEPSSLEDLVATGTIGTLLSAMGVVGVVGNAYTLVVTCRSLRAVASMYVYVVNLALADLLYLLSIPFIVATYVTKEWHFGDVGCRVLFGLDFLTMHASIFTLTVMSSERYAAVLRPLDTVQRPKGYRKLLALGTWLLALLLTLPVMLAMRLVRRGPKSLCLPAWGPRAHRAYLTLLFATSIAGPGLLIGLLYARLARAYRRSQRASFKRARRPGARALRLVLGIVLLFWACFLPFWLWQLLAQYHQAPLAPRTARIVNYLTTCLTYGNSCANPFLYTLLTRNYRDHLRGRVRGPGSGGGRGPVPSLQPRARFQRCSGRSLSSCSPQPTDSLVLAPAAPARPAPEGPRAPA
Assay: Radioligand binding: [125I] h-U-II binding to HEK-293 cell membranes
Conditions: HEK-293 cell membranes with stable cloned GPR-14; 200 pM [125I] h-U-II; species for the value not stated
Description: HEK-293 cell membranes containing stable cloned human and rat GPR-14 (20 ug/assay) were incubated with 200 pM [125I] h-U-II (200 Ci/mmol^−1 in the presence of increasing concentrations of test compounds in DMSO (0.1 nM to 10 uM), in a final incubation volume of 200 ul (20 mM Tris-HCl, 5 mM MgCl2). Incubation was done for 30 minutes at room temperature followed by filtration GF/B filters with Brandel cell harvester. ^125I labeled U-II binding was quantitated by gamma counting. Nonspecific binding was defined by ^125I U-II binding in the presence of 100 nM of unlabeled human U-II. Analysis of the data was performed by nonlinear least square fitting.

CN1CC[C@@H](Oc2cc(NS(=O)(=O)c3cnc(Cl)nc3OCC(F)(F)F)ccc2Cl)C1 [Example 14, 2-Chloro-4-(2,2,2-trifluoro-ethoxy)-pyrimidine-5-sulfonic acid [4-chloro-3-((R)-1-methyl-pyrrolidin-3-yloxy)-phenyl]-amide]
Ki: 590 nM
